Results reported in patent US11254635B2, “Emodin succinyl ester compound, preparation method therefor and application thereof” (JIANGSU KANION PHARMACEUTICAL CO., LTD., priority 2017, dated 2022).
Where two headings read alike, the source gives them in different places.

Key:
[1] = system: rats with mixed hyperlipidemia; assay: Blood lipid levels in rats with mixed hyperlipidemia (high-fat feed), Example 6; assay type: in vivo; conditions: two weeks; for effect on TG in serum: high dose of the ester; for effect on TG in serum / effect on LDL-C in serum / effect on TC in serum: atorvastatin calcium 10 mg/kg, vs hyperlipidemia group; for effect on LDL-C in serum / effect on TC in serum: low, medium, high doses of the ester; for LDL-C / TC / TG: serum, high-fat diet
Procedure: (§1) Feeding rats with high-fat feed containing cholesterol, sucrose, lard, and sodium cholate can form a rat model of lipid metabolism disorders, and then the rats are administrated with drug, detect the effect of the test object on hyperlipidemia, and determine the effect of the test object on the lipid absorption, lipoprotein formation, lipid degradation or excretion in rats.
(§2) Second random grouping: After the establishment of the rat hyperlipidemia model, the blood lipids of the rats were measured, and rats in the hyperlipidemia model group were randomly divided into five groups, 11 rats in the positive drug group, 10 rats in each of the other groups. The five groups were the hyperlipidemia model group, the low-dose test object group (emodin succinyl ethyl ester in a dose of 10 mg/kg·d^−1), the medium-dose test object group (emodin succinyl ethyl ester in a dose of 20 mg/kg·d^−1), the high-dose test object group (emodin succinyl ethyl ester in a dose of 40 mg/kg·d^−1), and the positive control drug group (Atorvastatin calcium group in a dose of 10 mg/kg·d^−1), respectively.
In the experimental groups, rats in the blank control group were fed with maintenance feed and the remaining 5 groups were fed with high-fat diet. After 2 weeks, the levels of TG, TC, LDL-C and HDL-C in the serum of the rats were measured. The rats were weighed once a week.
(§3) The rats in the successfully grouped high-dose test object, medium-dose, and low-dose groups and positive control drug group (atorvastatin calcium group) were intragastrically administered daily. Rats in the blank control group and the hyperlipidemia model group were given corresponding doses of lysozyme.
(§4) Feeding conditions remained unchanged. The rats were weighed once a week. Blood were collected at the tip of the tail two weeks after drug administration and livers were taken, to determine the levels of TC, TG, LDL-C, and HDL-C in serum of the rats and the levels of TC and TG in the liver, and then the effect of the test object on the TC, TG, LDL-C and HDL-C in serum of the rats and the TC and TG in liver were observed.

[2] = system: rats with mixed hyperlipidemia; assay: Levels of TC and TG in the liver of rats with mixed hyperlipidemia, Example 6; assay type: in vivo; conditions: two weeks; for TC / TG: liver, high-fat diet; for effect on TC in liver / effect on TG in liver: low, medium, high doses of the ester, atorvastatin calcium 10 mg/kg, vs hyperlipidemia model group
Procedure: as §1, §2, §3, §4
(3) TC and TG in liver, measured after sampling

[3] = system: oleic acid-induced hyperlipemia cells (HepG2 cell line); assay: Levels of TC and TG in oleic acid-induced hyperlipemia cells; assay type: cell-based; conditions: for TC / TG: HepG2, oleic acid 200 μmol/L, 24 hours
Procedure: Oleic acid is added to culture HepG2 cells to induce a hyperlipemia cell model, and then the cells are given a test drug, the effect of the test object on the lipid level of the cells is detected.
When the degree of cell fusion reached about 80%, except for the normal group, cells in other groups were all added with oleic acid at a dose of 200 μmol/L, and then the cells were divided into five groups: the normal group, the oleic acid-induced hyperlipemia group, low-dose emodin succinyl ethyl ester group (5 μmol/L), the medium-dose emodin succinyl ethyl ester group (10 μmol/L) and the high dose emodin succinyl ethyl ester group (20 μmol/L). 24 hours later, the levels of TC and TG were measured.
The cells were digested with 0.25% trypsin to prepare a cell suspension; the cell suspension was centrifuged at 1000 rpm for 10 minutes; the supernatant was discarded, and the cell pellet was collected, washed with PBS once or twice, and configured at 1000 rpm for 10 minutes; the supernatant was discarded, and the cell pellet was collected.
200 μl of 2% TritonX-100 was added for lysis for 30 minutes.
First, the protein concentration of the sample was determined using the Beyotime kit. Then, 250 μl of working solution was added to a 96-well plate, 2.5 μl of distilled water was added to the blank wells, 2.5 μl of calibration solution was added to the calibration wells, 2.5 μl of sample was added to the sample wells, and they were all incubated for 10 minutes at 37° C. The OD values were measured by using a 510 nm microplate reader.
3.2.4 Calculation Formulas: Cholesterol content=(sample OD value−blank OD value)/(calibrated OD value−blank OD value)*5.17/protein concentration of the sample to be tested Triglyceride content=(sample OD value−blank OD value)/(calibrated OD value−blank OD value)*2.26/protein concentration of the sample to be tested.

[4] = system: rats with mixed hyperlipidemia; assay: Comparison of emodin succinyl ethyl ester and emodin in lowering blood lipid levels in rats with mixed hyperlipidemia, Example 7; assay type: in vivo
Procedure: Feeding rats with high-fat feed containing cholesterol, sucrose, lard and sodium cholate can form a rat model of lipid metabolism disorders and then the rats are administered with a drug, detect the effects of the test object on hyperlipidemia, and determine the effect of the test object on the lipid absorption, lipoprotein formation, lipid degradation or excretion in rats.
Second random grouping: After the establishment of the rat hyperlipidemia model, the blood lipids of the rats were measured, and rats in the hyperlipidemia model group were randomly divided into four groups, 11 rats in the positive drug group, 10 rats in each of the other groups. The four groups were the hyperlipidemia model group, the low-dose test object (emodin succinyl ethyl ester in a dose of 20 mg/kg·d^−1) group, the emodin (20 mg/kg·d^−1) group, and the positive control drug (Atorvastatin calcium group in a dose of 10 mg/kg·d^−1) group, respectively.
In the experimental groups, rats in the blank control group were fed with maintenance feed and the remaining 4 groups were fed with a high-fat diet. After 2 weeks, the levels of TG, TC, LDL-C and HDL-C in the serum of the rats were measured. The rats were weighed once a week.
as §3, with “grouped” for “grouped high-dose”, “object (emodin succinyl ethyl ester) group, emodin group” for “object, medium-dose, and low-dose groups”
Feeding conditions remained unchanged. The rats were weighed once a week. Blood were collected at the tip of the tail two weeks after drug administration. The effect of the test object on the TC, TG, LDL-C and HDL-C in serum of the rats were observed.

[5] = system: skin wound of mice with type 1 diabetes; assay: Wound healing of mice with diabetes (STZ model, 5 mm skin punch wound); assay type: in vivo, Kunming mice; conditions: 100 μg/mL oil, 10 μL dripped on the wound once a day, 14 days; vs diabetes model, solvent control and emodin groups
Procedure: SPF-grade male Kunming mice (18-20 g) were adaptively fed with ordinary maintenance feed for 3-5 days, weighed and randomly divided into a blank control group (Control) and a diabetes model group. Mice in the diabetes model group were administrated with high-dose STZ (streptozotocin, 180 mg/kg) through intraperitoneal injection and fasting blood glucose was measured after one week. The mice successfully modeled were randomly divided into 5 groups, namely, the diabetes model group (Model), the solvent control group (Solvent), the positive drug (recombinant human epidermal growth factor) control group (EGF), the emodin group (DHS), and the emodin succinyl ethyl ester group (DHS-YSW).
Animals in each group were anesthetized with sodium pentobarbital (1%) and shaved on the back. A 5 mm skin punch was used to establish a 5 mm wound model at the highest part of the back. The Control group and the Model group were not treated with any drugs. The solvent control group was dripped with 10 μL of sterile vegetable oil. The positive drug group was dripped with 10 μL of recombinant human epidermal factor solution (2000 IU/mL) each day. The other groups were dripped on the wound with 10 μL of a corresponding drug, once a day for 14 consecutive days. […]
The experimental data were expressed as mean±standard error. […] The experimental results were all analyzed and graphed using GraphpadPrism6.0.

[6] = cited from earlier work
[7] = 10 mg/kg intragastrically once a day
[8] = low, medium and high doses (5, 10, 20 μmol/L), vs oleic acid group
[9] = 20 mg/kg intragastrically once a day
[10] = 40 mg/kg intragastrically once a day
[11] = 20 mg/kg·d^−1, two weeks, vs hyperlipidemia group
[12] = 20 mg/kg·d^−1 vs equivalent dose of emodin (20 mg/kg·d^−1), two weeks

Structure (SMILES): CC(C)c1c(C(=O)Nc2ccccc2)c(-c2ccccc2)c(-c2ccc(F)cc2)n1CC[C@@H](O)C[C@@H](O)CC(=O)[O-].CC(C)c1c(C(=O)Nc2ccccc2)c(-c2ccccc2)c(-c2ccc(F)cc2)n1CC[C@@H](O)C[C@@H](O)CC(=O)[O-].[Ca+2] [Atorvastatin calcium, reference compound]
- effect on TG in serum [1]: significantly reduce
- effect on LDL-C in serum [1]: significantly reduce
- effect on TC in serum [1]: significantly reduce
- LDL-C [1, 7]: 0.13 ± 0.03 mmol/L
- TC [1, 7]: 2.82 ± 1.02 mmol/L
- TG [1, 7]: 2.94 ± 0.20 mmol/L
- TC [2, 7]: 0.066 ± 0.004 mmol/L
- TG [2, 7]: 0.090 ± 0.008 mmol/L
- effect on TC in liver [2]: reduce
- effect on TG in liver [2]: reduce

Structure (SMILES): CCOC(=O)CCC(=O)Oc1cc(O)c2c(c1)C(=O)c1cc(C)cc(O)c1C2=O [emodin succinyl ethyl ester, 1,8-dihydroxy-3-succinic acid monoethyl group-6-Methylanthraquinone]
- TC ([3]; 5 μmol/L): 0.730 ± 0.168 mmol/L
- TG ([3]; 5 μmol/L): 0.610 ± 0.308 mmol/L
- TC ([3]; 10 μmol/L): 0.506 ± 0.197^###& mmol/L
- TG ([3]; 10 μmol/L): 0.487 ± 0.347 mmol/L
- TC ([3]; 20 μmol/L): 0.537 ± 0.145^###&& mmol/L
- TG ([3]; 20 μmol/L): 0.414 ± 0.209 mmol/L
- effect on level of TC of cells [3, 8]: significantly reduce
- effect on level of TG of cells [3, 8]: significantly reduce
- effect on TG in serum [1]: significantly reduce
- effect on LDL-C in serum [1]: significantly reduce
- effect on TC in serum [1]: significantly reduce
- LDL-C [1, 7]: 0.17 ± 0.08 mmol/L
- TC [1, 7]: 2.60 ± 0.74 mmol/L
- TG [1, 7]: 3.98 ± 0.63 mmol/L
- LDL-C [1, 9]: 0.15 ± 0.05 mmol/L
- TC [1, 9]: 2.36 ± 0.78 mmol/L
- TG [1, 9]: 4.12 ± 0.37 mmol/L
- LDL-C [1, 10]: 0.18 ± 0.03 mmol/L
- TC [1, 10]: 2.88 ± 0.34 mmol/L
- TG [1, 10]: 3.23 ± 0.12 mmol/L
- TC [2, 7]: 0.069 ± 0.010 mmol/L
- TG [2, 7]: 0.105 ± 0.023 mmol/L
- TC [2, 9]: 0.078 ± 0.010 mmol/L
- TG [2, 9]: 0.127 ± 0.016 mmol/L
- TC [2, 10]: 0.059 ± 0.005 mmol/L
- TG [2, 10]: 0.079 ± 0.011 mmol/L
- effect on TC in liver [2]: reduce
- effect on TG in liver [2]: reduce
- effect on LDL-C in serum [4, 11]: significantly reduce
- effect on TC in serum [4, 11]: significantly reduce
- lowering LDL-C in serum compared with emodin [4, 12]: better effects
- lowering TC in serum compared with emodin [4, 12]: better effects
- wound healing speed [5]: significantly faster wound healing speed

Structure (SMILES): Cc1cc(O)c2c(c1)C(=O)c1cc(O)cc(O)c1C2=O [emodin, 1,3,8-trihydroxy-6-methylanthraquinone]
- absolute bioavailability ([6]; female SD rats): 5%
- absolute bioavailability ([6]; male SD rats): 7.5%
